Test results reported in patent publication US20230330077A1, “USE OF SPHINGOSINE-1-PHOSPHATE RECEPTOR AGONIST” (LG CHEM, LTD., priority 2020, published 2023).

Key:
[1] = tested on: oxazolone-induced animal model of atopic dermatitis; experiment: oxazolone-induced animal model of atopic dermatitis in mice; type: in vivo, mice (Balb/c)
Description: An animal model of atopic dermatitis was induced in mice (Balb/c) by the use of oxazolone. With the first sensitization day of oxazolone set as day 0, it was administered orally or transdermally starting on day 7 once a day. When the date of application of oxazolone and the date of administration of the drug were overlapped, the drug was administered about 6 hours after application of oxazolone.
For all mice, abdominal hair was removed one day before the first application of oxazolone. Then, 1% or 0.2% oxazolone was prepared by the use of a 4:1 ratio of acetone/corn oil, and sensitization and induction on the shaved mouse abdomen and both ears were performed with the same dose and schedule as represented in Table 1 and FIG. 1.
The test substances (the Test Compound and dexamethasone as a positive control) were prepared for each administration dose as represented in Table 2 below by the use of 0.5% methyl cellulose. In the case of the Test Compound, it was prepared in consideration of the HCl salt form. The test substances were dissolved in 0.5% methyl cellulose and then sonicated.
The test substances were prepared by dissolving them at the concentration of 0.1% (w/v) in a solution (PEG400:100% ethanol=1:1). 5 mL of PEG400 was added to 10 mg of the test substances and sonicated. When they were dissolved to some extent, 5 mL of 100% ethanol was added thereto and sonicated to dissolve them completely. In addition, the vehicle and the test substances were prepared fresh every day and used.

[2] = tested on: oxazolone-induced animal model of atopic dermatitis; experiment: as above; type: in vivo, mice (Balb/c); settings: Example 4, Table 3; for Therapeutic effect (Compared to disease-induced group): Ear thickness (Day 21 after administration): reduction in ear thickness
[3] = Example 5 comparative experimentation, Table 4, oral administration 1 mg/kg
[4] = Example 5 comparative experimentation, Table 4, oral administration 1 mg/kg, blood level of IgE
[5] = Example 4, Table 3, oral administration 1 mg/kg once a day, reduction in ear thickness
[6] = Example 4, Table 3, oral administration 1 mg/kg once a day, reduction in ear weight after autopsy
[7] = Example 4, Table 3, oral administration 1 mg/kg once a day, reduction in epidermal thickness
[8] = Example 4, Table 3, oral administration 1 mg/kg once a day, reduction in the blood level of IgE
[9] = Example 5 comparative experimentation, Table 4, oral administration 0.1 mg/kg
[10] = Example 5 comparative experimentation, Table 4, oral administration 0.3 mg/kg

## O=C(O)C[C@H]1CCc2c1[nH]c1ccc(OCc3ccc(C4CCCC4)c(C(F)(F)F)c3)cc21 [etrasimod, 2-[(3R)-7-[[4-cyclopentyl-3-(trifluoromethyl)phenyl]methoxy]-1,2,3,4-tetrahydrocyclopenta[b]indol-3-yl] acetic acid, reference compound]
[1]; [3]
  Therapeutic effect (Compared to disease-induced group): Ear thickness (Day 21 after administration): 32%
  Therapeutic effect (Compared to disease-induced group): Ear weight (Day 21 after administration): 50%
  Therapeutic effect (Compared to disease-induced group): Epidermal thickness of ear tissue (Day 21 after administration): 36%
  Therapeutic effect (Compared to disease-induced group): Mast cell accumulation (Day 21 after administration): 28%
[1]; [4]
  Therapeutic effect (Compared to disease-induced group): IgE (Day 21 after administration): 47%

## C[C@@H]1C[C@H]2[C@@H]3CCC4=CC(=O)C=C[C@]4(C)[C@@]3(F)[C@@H](O)C[C@]2(C)[C@@]1(O)C(=O)CO [Dexamethasone, dexamethasone, reference compound]
[1]; [5]
  Therapeutic effect (Compared to disease-induced group): Ear thickness (Day 21 after administration): 66%
[1]; [6]
  Therapeutic effect (Compared to disease-induced group): Ear weight (Day 21 after administration): 54%
[1]; [7]
  Therapeutic effect (Compared to disease-induced group): Epidermal thickness of ear tissue (Day 21 after administration): 55%
[1]; [8]
  Therapeutic effect (Compared to disease-induced group): IgE (Day 21 after administration): 12%

## CC(C)n1nc(Cl)c2cc(COc3ccc4c(c3)CCC(CN3CCC(C(=O)O)CC3)=C4Cl)ccc21 [Test Compound, 1-[1-Chloro-6-(3-chloro-1-isopropyl-1H-indazol-5-ylmethoxy)-3,4-dihydro-naphthalen-2-ylmethyl]-piperidine-4-carboxylic acid]
[1]; Example 4, Table 3, oral administration 0.1 mg/kg once a day, reduction in ear thickness
  Therapeutic effect (Compared to disease-induced group): Ear thickness (Day 21 after administration): 37%
[1]; Example 4, Table 3, oral administration 0.1 mg/kg once a day, reduction in ear weight after autopsy
  Therapeutic effect (Compared to disease-induced group): Ear weight (Day 21 after administration): −2%
[1]; Example 4, Table 3, oral administration 0.1 mg/kg once a day, reduction in epidermal thickness
  Therapeutic effect (Compared to disease-induced group): Epidermal thickness of ear tissue (Day 21 after administration): 25%
[1]; Example 4, Table 3, oral administration 0.1 mg/kg once a day, reduction in mast cell accumulation, ear tissue
  Therapeutic effect (Compared to disease-induced group): Mast cell accumulation (Day 21 after administration): 21%
[1]; Example 4, Table 3, oral administration 0.1 mg/kg once a day, reduction in the blood level of IgE
  Therapeutic effect (Compared to disease-induced group): IgE (Day 21 after administration): −56%
[1]; Example 4, Table 3, oral administration 0.3 mg/kg once a day, reduction in ear thickness
  Therapeutic effect (Compared to disease-induced group): Ear thickness (Day 21 after administration): 63%
[1]; Example 4, Table 3, oral administration 0.3 mg/kg once a day, reduction in ear weight after autopsy
  Therapeutic effect (Compared to disease-induced group): Ear weight (Day 21 after administration): 48%
[1]; Example 4, Table 3, oral administration 0.3 mg/kg once a day, reduction in epidermal thickness
  Therapeutic effect (Compared to disease-induced group): Epidermal thickness of ear tissue (Day 21 after administration): 56%
[1]; Example 4, Table 3, oral administration 0.3 mg/kg once a day, reduction in mast cell accumulation, ear tissue
  Therapeutic effect (Compared to disease-induced group): Mast cell accumulation (Day 21 after administration): 34%
[1]; Example 4, Table 3, oral administration 0.3 mg/kg once a day, reduction in the blood level of IgE
  Therapeutic effect (Compared to disease-induced group): IgE (Day 21 after administration): 38%
[1]; [5]
  Therapeutic effect (Compared to disease-induced group): Ear thickness (Day 21 after administration): 61%
[1]; [6]
  Therapeutic effect (Compared to disease-induced group): Ear weight (Day 21 after administration): 53%
[1]; [7]
  Therapeutic effect (Compared to disease-induced group): Epidermal thickness of ear tissue (Day 21 after administration): 61%
[1]; Example 4, Table 3, oral administration 1 mg/kg once a day, reduction in mast cell accumulation, ear tissue
  Therapeutic effect (Compared to disease-induced group): Mast cell accumulation (Day 21 after administration): 29%
[1]; [8]
  Therapeutic effect (Compared to disease-induced group): IgE (Day 21 after administration): 44%
[1]; Example 4, Table 3, topical administration 0.01% once a day, reduction in ear weight after autopsy
  Therapeutic effect (Compared to disease-induced group): Ear weight (Day 21 after administration): 65%
[1]; Example 4, Table 3, topical administration 0.01% once a day, reduction in mast cell accumulation, ear tissue
  Therapeutic effect (Compared to disease-induced group): Mast cell accumulation (Day 21 after administration): 42%
[1]; Example 4, Table 3, topical administration 0.01% once a day, reduction in the blood level of IgE
  Therapeutic effect (Compared to disease-induced group): IgE (Day 21 after administration): 43%
[1]; Example 4, Table 3, topical administration 0.03% once a day, reduction in ear weight after autopsy
  Therapeutic effect (Compared to disease-induced group): Ear weight (Day 21 after administration): 72%
[1]; Example 4, Table 3, topical administration 0.03% once a day, reduction in epidermal thickness
  Therapeutic effect (Compared to disease-induced group): Epidermal thickness of ear tissue (Day 21 after administration): 55%
[1]; Example 4, Table 3, topical administration 0.03% once a day, reduction in mast cell accumulation, ear tissue
  Therapeutic effect (Compared to disease-induced group): Mast cell accumulation (Day 21 after administration): 59%
[1]; Example 4, Table 3, topical administration 0.1% once a day, reduction in ear thickness
  Therapeutic effect (Compared to disease-induced group): Ear thickness (Day 21 after administration): 69%
[1]; Example 4, Table 3, topical administration 0.1% once a day, reduction in ear weight after autopsy
  Therapeutic effect (Compared to disease-induced group): Ear weight (Day 21 after administration): 69%
[1]; Example 4, Table 3, topical administration 0.1% once a day, reduction in epidermal thickness
  Therapeutic effect (Compared to disease-induced group): Epidermal thickness of ear tissue (Day 21 after administration): 58%
[1]; Example 4, Table 3, topical administration 0.1% once a day, reduction in mast cell accumulation, ear tissue
  Therapeutic effect (Compared to disease-induced group): Mast cell accumulation (Day 21 after administration): 70%
[1]; Example 4, Table 3, topical administration 0.1% once a day, reduction in the blood level of IgE
  Therapeutic effect (Compared to disease-induced group): IgE (Day 21 after administration): 71%
[1]; Example 4, summary of Table 3 and FIGS. 2 to 6
  overall effect in the oxazolone-induced animal model of atopic dermatitis versus positive control: superior effect in a dose-dependent manner compared to dexamethasone
[1]; Example 5, summary of Table 4 and FIG. 7
  overall effect in the animal model of atopic dermatitis versus comparative compound: equal or superior effects even at lower doses compared to the comparative compound, etrasimod
[1]; [9]
  Therapeutic effect (Compared to disease-induced group): Ear thickness (Day 21 after administration): 14%
  Therapeutic effect (Compared to disease-induced group): Ear weight (Day 21 after administration): 31%
  Therapeutic effect (Compared to disease-induced group): Epidermal thickness of ear tissue (Day 21 after administration): 21%
  Therapeutic effect (Compared to disease-induced group): Mast cell accumulation (Day 21 after administration): 27%
[1]; Example 5 comparative experimentation, Table 4, oral administration 0.1 mg/kg, blood level of IgE
  Therapeutic effect (Compared to disease-induced group): IgE (Day 21 after administration): 31%
[1]; [10]
  Therapeutic effect (Compared to disease-induced group): Ear thickness (Day 21 after administration): 29%
  Therapeutic effect (Compared to disease-induced group): Ear weight (Day 21 after administration): 55%
  Therapeutic effect (Compared to disease-induced group): Epidermal thickness of ear tissue (Day 21 after administration): 42%
  Therapeutic effect (Compared to disease-induced group): Mast cell accumulation (Day 21 after administration): 35%
[1]; Example 5 comparative experimentation, Table 4, oral administration 0.3 mg/kg, blood level of IgE
  Therapeutic effect (Compared to disease-induced group): IgE (Day 21 after administration): 46%
[1]; [3]
  Therapeutic effect (Compared to disease-induced group): Ear thickness (Day 21 after administration): 42%
  Therapeutic effect (Compared to disease-induced group): Ear weight (Day 21 after administration): 69%
  Therapeutic effect (Compared to disease-induced group): Epidermal thickness of ear tissue (Day 21 after administration): 44%
  Therapeutic effect (Compared to disease-induced group): Mast cell accumulation (Day 21 after administration): 43%
[1]; [4]
  Therapeutic effect (Compared to disease-induced group): IgE (Day 21 after administration): 72%
[2]; topical administration 0.01% once a day
  Therapeutic effect (Compared to disease-induced group): Ear thickness (Day 21 after administration): 63%
[2]; topical administration 0.01% once a day, reduction in epidermal thickness
  Therapeutic effect (Compared to disease-induced group): Epidermal thickness of ear tissue (Day 21 after administration): 26%
[2]; topical administration 0.03% once a day
  Therapeutic effect (Compared to disease-induced group): Ear thickness (Day 21 after administration): 71%
[2]; topical administration 0.03% once a day, reduction in the blood level of IgE
  Therapeutic effect (Compared to disease-induced group): IgE (Day 21 after administration): 74%
